Measured values taken from patent publication US7947275B2 (Signe Biopharma, Inc., priority 2000, dated 2011).
Values joined by “and” are separate entries in the source; they are usually repeats but may differ in a detail not shown here. Identical values can stand only once. Counter-ions that a name gives are not always drawn. Like-named read-outs stand apart in the source and are kept apart here.

Legend:
H301 cells = assay: Cell growth assay, H301 kidney tumor cells; conditions: 50% (v/v) CDE-horse serum
From the text: (§1) General Cell Culture—Growth Assay Methods.
(§2) General Cell Culture—Harvest and Counting Cells.
(§3) General Cell Culture—Quantification of Growth.

MTW9/PL2 cells = assay: Cell growth assay, MTW9/PL2 rat mammary tumor cells; conditions: for concentration for optimum growth / concentration causing significant (p<0.05) growth: 50% (v/v) CDE-horse serum
From the text: as §1, §2, §3

GH4C1 cells = assay: Cell growth assay, GH4C1 rat pituitary tumor cells; conditions: 50% CDE-horse serum
From the text: as §1, §2, §3

T47D cells = assay: Cell growth assay, T47D human breast cancer cells; conditions: for growth effect of steroid hormone, result in words: 50% (v/v) CDE horse serum, 14 days
From the text: as §1, §2, §3

CA-PS-Pool II = assay: Scatchard analysis of labeled steroid binding to CA-PS-pool II; parameters: species or system horse; conditions: 3H-labeled steroid, 34° C.
human SHBG = human SHBG (Homo sapiens, UniProt P04278); conditions: 37° C.; cited from earlier work
Chain of human SHBG (P04278 30-402): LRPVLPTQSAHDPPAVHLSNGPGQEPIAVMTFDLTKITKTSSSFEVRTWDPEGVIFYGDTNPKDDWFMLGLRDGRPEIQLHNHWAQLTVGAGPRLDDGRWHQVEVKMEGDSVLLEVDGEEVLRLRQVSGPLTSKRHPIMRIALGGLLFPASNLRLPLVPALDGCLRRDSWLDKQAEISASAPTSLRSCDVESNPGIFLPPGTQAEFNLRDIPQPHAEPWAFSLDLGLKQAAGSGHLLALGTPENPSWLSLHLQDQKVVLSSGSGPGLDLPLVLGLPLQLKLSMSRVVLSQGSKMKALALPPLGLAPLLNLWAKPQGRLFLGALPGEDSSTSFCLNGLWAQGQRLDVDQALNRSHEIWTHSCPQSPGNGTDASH

[1] = read-out: Kd of specific binding of ^3H-DHT, Scatchard analysis
LNCaP cells = assay: Cell growth assay, LNCaP human prostatic carcinoma cells; type: cell-based; conditions: for reversal of the inhibition caused by CDE-horse serum: D-MEM/F-12 with CDE-horse serum, 10 nM steroid
Method: Specific modifications of the customary cell growth assays were required for assays done under iron-restricted conditions. […] Serum-free components were added to “low-Fe” D-MEM/F-12 at double the concentrations needed (2X) or to “standard” D-MEM/F-12 at (2X) as the experiments dictated. Each assay dish received 1.0 mL of this solution. Next, the cells to be used in the assays were washed three times in either “low-Fe” medium or “standard” medium depending upon the experimental protocol.

[2] = read-out: Kd of specific binding of ^3H-DHT
[3] = target: T1, CA-PS-Pool I (predominantly CBG) (Equus caballus, UniProt F7DRS2); assay: Scatchard analysis of labeled steroid binding to CA-PS-pool I; parameters: species or system horse
T1 sequence (F7DRS2 23-406): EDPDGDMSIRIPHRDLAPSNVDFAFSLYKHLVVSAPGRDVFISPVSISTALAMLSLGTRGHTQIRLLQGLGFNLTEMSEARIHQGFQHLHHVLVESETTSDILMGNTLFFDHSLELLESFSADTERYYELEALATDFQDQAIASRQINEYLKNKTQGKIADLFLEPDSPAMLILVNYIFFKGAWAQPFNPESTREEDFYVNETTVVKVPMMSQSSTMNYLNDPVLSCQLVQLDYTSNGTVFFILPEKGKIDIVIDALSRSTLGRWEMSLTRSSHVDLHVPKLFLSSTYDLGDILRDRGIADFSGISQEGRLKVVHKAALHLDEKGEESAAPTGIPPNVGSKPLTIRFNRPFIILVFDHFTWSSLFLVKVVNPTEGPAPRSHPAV

[4] = test system: CA-PS-Pool II from rat serum; assay: Scatchard analysis of labeled steroid binding to the SHBG-like pools from rat serum; conditions: 3H-labeled steroid
[5] = test system: androgen receptors of MTW9/PL2 cells
[6] = target: T2, estrogen receptors of MTW9/PL2 cells (Rattus norvegicus, UniProt P06211); assay: ^3H-E2 binding to MTW9/PL2 cells; conditions: 5 nM ^3H-E2, 37° C., 100-fold molar excess of unlabeled steroid
T2 construct: endogenous in cells; host or cells: MTW9/PL2 rat mammary tumor cells (whole cells; some values from extracts of the parental MTW9/PL line)
T2 sequence (P06211 whole entry): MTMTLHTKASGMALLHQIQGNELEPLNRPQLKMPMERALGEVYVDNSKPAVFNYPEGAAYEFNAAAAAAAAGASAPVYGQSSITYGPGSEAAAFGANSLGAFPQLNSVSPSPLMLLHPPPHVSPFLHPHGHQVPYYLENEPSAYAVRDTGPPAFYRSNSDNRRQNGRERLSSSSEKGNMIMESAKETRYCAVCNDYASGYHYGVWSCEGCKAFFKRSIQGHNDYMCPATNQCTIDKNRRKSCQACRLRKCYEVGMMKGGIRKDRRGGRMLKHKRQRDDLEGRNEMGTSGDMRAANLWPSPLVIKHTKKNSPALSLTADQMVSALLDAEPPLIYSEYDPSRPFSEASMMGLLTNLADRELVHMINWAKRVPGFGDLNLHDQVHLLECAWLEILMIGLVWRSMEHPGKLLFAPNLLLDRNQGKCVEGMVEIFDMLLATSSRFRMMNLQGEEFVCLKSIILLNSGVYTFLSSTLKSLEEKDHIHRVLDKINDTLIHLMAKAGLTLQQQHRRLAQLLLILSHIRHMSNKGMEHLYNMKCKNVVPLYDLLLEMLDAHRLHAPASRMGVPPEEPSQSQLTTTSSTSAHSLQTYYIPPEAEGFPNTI

PC3 cells = assay: Cell growth assay, PC3 human prostate cancer cells; conditions: CAPM, 10 μM Fe (III)
From the text: as §1, §2, §3

MCF-7A cells = assay: Cell growth assay, MCF-7A human breast cancer cells; conditions: DDM-2MF with 10 μg/mL apotransferrin in place of deferoxamine
From the text: as §1, §2, §3

DU145 cells = assay: Cell growth assay, DU145 human prostate cancer cells; conditions: CAPM, 10 μM Fe (III)
From the text: as §1, §2, §3

ALVA-41 cells = assay: Cell growth assay, ALVA-41 human prostate cancer cells; conditions: results not shown
[7] = test system: MCF-7A, MCF-7K, T47D and ZR-75-1 cells; assay: Growth factors as substitutes for E2 with human breast cancer cells in CDE-horse serum; type: cell-based; conditions: EGF, TGFα growth saturating; IGF-I 1.0 μg/mL; IGF-II up to 500 ng/mL; insulin 10 ng/mL to 10 μg/mL
[8] = target: progesterone receptors in MTW9/PL2 cells (Rattus norvegicus, UniProt Q63449); assay: ^3H-progesterone binding to MTW9/PL2 cells
Chain of progesterone receptors in MTW9/PL2 cells (Rattus norvegicus, UniProt Q63449) (Q63449 669-923 limits assumed): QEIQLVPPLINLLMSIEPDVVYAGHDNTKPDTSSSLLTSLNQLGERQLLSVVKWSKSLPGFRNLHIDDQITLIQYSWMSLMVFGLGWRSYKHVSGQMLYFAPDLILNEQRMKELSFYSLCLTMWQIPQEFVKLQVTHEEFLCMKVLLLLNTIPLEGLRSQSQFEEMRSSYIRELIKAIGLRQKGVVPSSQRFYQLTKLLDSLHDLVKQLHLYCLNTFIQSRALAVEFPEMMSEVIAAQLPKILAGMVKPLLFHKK

[9] = test system: progesterone receptors in MTW9/PL2 cells; assay: ^3H-progesterone binding to MTW9/PL2 cells; parameters: species or system rat; conditions: 37° C.
MCF-7K cells = assay: Cell growth assay, MCF-7K human breast cancer cells
From the text: as §1, §2, §3

[10] = test system: MCF-7A, T47D, ZR-75-1, LNCaP and GH4C1 cells; assay: TGFβ1 at 50 ng/mL ± E2 with other ER^+ cell lines; type: cell-based
human CBG = human CBG (Homo sapiens, UniProt P08185); conditions: 23° C.; cited from earlier work
Chain of human CBG (P08185 23-405): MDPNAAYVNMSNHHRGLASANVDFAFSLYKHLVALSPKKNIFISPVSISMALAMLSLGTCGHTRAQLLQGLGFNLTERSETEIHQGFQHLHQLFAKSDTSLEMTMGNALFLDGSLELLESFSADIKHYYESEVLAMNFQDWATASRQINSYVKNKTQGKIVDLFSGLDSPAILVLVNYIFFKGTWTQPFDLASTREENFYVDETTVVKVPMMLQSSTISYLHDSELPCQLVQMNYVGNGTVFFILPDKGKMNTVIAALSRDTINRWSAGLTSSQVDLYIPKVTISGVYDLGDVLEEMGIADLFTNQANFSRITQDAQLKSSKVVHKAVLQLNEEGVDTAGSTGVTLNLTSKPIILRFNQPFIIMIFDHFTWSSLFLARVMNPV

[11] = test system: cortisol receptors of MTW9/PL2 cells; assay: ^3H-cortisol binding to MTW9/PL2 cells; conditions: ≦20 nM ^3H-cortisol
[12] = read-out: CA-PS-Pool I Kd; 3H-labeled steroid, 34° C.

C[C@]12CC[C@@H]3c4ccc(O)cc4CC[C@H]3[C@@H]1CCC2=O [E1, Estrone]
concentration required to achieve significant (p<0.05) growth (H301 cells): 100 pM
concentration for optimum growth (MTW9/PL2 cells): 1 nM
concentration required for optimum growth (GH4C1 cells): 10 nM
lowest concentration that gave significant (p<0.05) growth (GH4C1 cells): 1 pM

C[C@]12CCC(=O)C[C@@H]1CC[C@@H]1[C@@H]2CC[C@]2(C)[C@@H](O)CC[C@@H]12 [DHT, Dihydrotestosterone]
growth effect of steroid hormone, result in words (T47D cells): promoted growth but only at supraphysiological concentrations
growth effect of steroid hormone, result in words (H301 cells): inactive
CA-PS-Pool II Ka (CA-PS-Pool II): 6.99e+07 M⁻¹
Kd (CA-PS-Pool II): 14.3 nM
CA-PS-Pool II Ka (CA-PS-Pool II; listed as 3H-DHT): 5.88e+07 M⁻¹
Ka of purified human SHBG (human SHBG): 9.9e+08 M⁻¹
Kd [1]: 1 to 5 nM
concentration causing significant (p<0.05) growth (MTW9/PL2 cells): ≥ 10 nM
concentration causing significant (p<0.05) growth (LNCaP cells; D-MEM/F-12 with 50% (v/v) CDE horse serum): 1 pM
reversal of the inhibition caused by CDE-horse serum (LNCaP cells): effectively reversed the inhibition
androgenic effect (difference between presence and absence of DHT) (LNCaP cells; serum-free CAPM ± 10 nM DHT): less than one
Kd [2]: 15 to 40 nM
CA-PS-Pool I Ka ([3]; 3H-labeled steroid, 34° C.): 164000 M⁻¹
Kd [3, 12]: 6050 nM
CA-PS-Pool II Ka [4]: 4.1e+07 M⁻¹
Kd [4]: 24 nM
specific saturable binding sites for androgens [5]: did not reveal saturable specific binding sites

C[C@]12CC[C@H]3[C@@H](CCC4=CC(=O)CC[C@@]43C)[C@@H]1CC[C@@H]2O [T, Testosterone]
growth effect of steroid hormone, result in words (T47D cells): promoted growth but only at supraphysiological concentrations
growth effect of steroid hormone, result in words (H301 cells): inactive
reduction of ^3H-E2 total binding by unlabeled steroid [6]: did not displace ^3H-E2 total binding significantly
growth effect of steroid hormone, result in words (GH4C1 cells): ineffective

[Fe+3] [Fe (III)]
concentration giving complete inhibition (T47D cells; DDM-2MF with 10 μg/mL apotransferrin instead of deferoxamine, 10 days, ± E2): 2 µM
IC50 (T47D cells; read-out: EI50, DDM-2MF with 10 μg/mL apotransferrin instead of deferoxamine, 10 days): 1000 nM
reduction in cell number (PC3 cells): 10%
concentration completely inhibitory (MCF-7A cells; ± E2, 10 days): 10 µM
IC50 (MCF-7A cells; read-out: EI50, 10 days): 5000 to 7000 nM
IC50 (LNCaP cells; CAPM with apotransferrin (500 nM) substituted for deferoxamine, 12-day assay, read-out: EI50 (the source's name)): 5000 nM
concentration arresting growth to seed density levels (LNCaP cells; CAPM with apotransferrin (500 nM) substituted for deferoxamine, 12-day assay, second experiment in CAPM): 10 µM and 8 to 10 µM
reduction in cell number (DU145 cells): 30%
iron sensitivity of growth (ALVA-41 cells): not iron sensitive

CC/C(=C(\c1ccccc1)c1ccc(OCCN(C)C)cc1)c1ccccc1 [tamoxifen, Tamoxifen Citrate]
estrogen reversal of the tamoxifen inhibition (T47D cells; 1.0×10^−7 M tamoxifen, serum-free defined medium): estrogens completely reverse the effect
cytotoxicity (T47D cells; concentrations above 1.0×10^−7 M, serum-free DDM-2MF): Higher concentrations were cytotoxic
concentration that completely inhibited (arrested) growth (T47D cells; serum-free DDM-2MF without any source of estrogens): 100 nM

CC/C(=C(/CC)c1ccc(O)cc1)c1ccc(O)cc1 [DES, Diethylstilbestrol]
reversal of the inhibition caused by CDE-horse serum (LNCaP cells): entirely ineffective

CC(=O)N(O)CCCCCNC(=O)CCC(=O)N(O)CCCCCNC(=O)CCC(=O)N(O)CCCCCN [deferoxamine, deferoxamine mesylate]
growth induced by chelator (LNCaP cells; CAPM without deferoxamine plus […] Fe (III), 0.5 μM chelator): 3.5 CPD

IGF-II: insulin-like growth factor II
reversal of the CDE-serum inhibition (substitute for E2) [7]: did not reverse the inhibitory effects of 10 to 50% (v/v) CDE serum

CC(=O)[C@H]1CC[C@H]2[C@@H]3CCC4=CC(=O)CC[C@]4(C)[C@H]3CC[C@]12C [progesterone, Progesterone]
growth effect of steroid hormone, result in words (T47D cells): completely ineffective
growth effect of steroid hormone, result in words (H301 cells): inactive
CA-PS-Pool II Ka (CA-PS-Pool II): 117000 M⁻¹
Kd (CA-PS-Pool II): 7890 nM
concentration causing significant (p<0.05) growth (MTW9/PL2 cells): ≥ 100 nM
Kd [8]: 3.29 nM
^3H-progesterone concentration at one-half saturation [9]: 0.5 to 1 nM
labeled progesterone concentration saturating specific binding [9]: ≥ 5 nM
Kd ([9]; read-out: Kd of ^3H-progesterone binding, Scatchard analysis, whole cells): 1.02 nM
CA-PS-Pool I Ka ([3]; 3H-labeled steroid, 34° C.): 5.9e+08 M⁻¹
Kd [3, 12]: 1.7 nM
CA-PS-Pool II Ka [4]: 140000 M⁻¹
Kd [4]: 6900 nM
growth effect of steroid hormone, result in words (GH4C1 cells): had no effect on GH4C1 growth

insulin: bovine insulin
reversal of the CDE-serum inhibition (substitute for E2) [7]: did not reverse the inhibition caused by 50% (v/v) CDE serum

EGF: epidermal growth factor from mouse submaxillary gland (NSYPGCPSSYDGYCLNGGVCMHIESLDSYTCNCVIGYSGDRCQTRDLRWWELR; not fully specified; Epidermal growth factor; UniProt P01132 977-1029, looked up)
reversal of the CDE-serum inhibition (substitute for E2) [7]: did not reverse the effects of the serum-borne inhibitor

TGFβ1: transforming growth factor β1
estrogen reversal of the inhibition (MCF-7K cells; […] (v/v) CDE-horse serum ± E2): no TGFβ1 related estrogenic effect
cell numbers per dish with TGFβ1 (350,000 without) (MCF-7K cells; […] (v/v) CDE-horse serum, 50 ng/mL): 200,000 per dish
substitution for the estrogen reversible inhibitor [10]: did not substitute for the estrogen reversible inhibitor(s) in CDE serum
cell numbers per dish with TGFβ1 (350,000 without) (MTW9/PL2 cells; D-MEM/F-12 with […] (v/v) CDE-horse serum): 100,000 per dish
decrease in growth rate (MTW9/PL2 cells; […] (v/v) CDE-horse serum): ≤ 25%
inhibition of growth (MTW9/PL2 cells; […] (v/v) CDE-horse serum): 1.5 CPD
estrogen reversal of the inhibition (MTW9/PL2 cells; […] (v/v) CDE-horse serum ± E2): no estrogen reversal of the TGFβ1 inhibition

C[C@]12CCC(=O)C=C1CC[C@@H]1[C@@H]2[C@@H](O)C[C@@]2(C)[C@H]1CC[C@]2(O)C(=O)CO [cortisol, Hydrocortisone/Cortisol]
growth effect of steroid hormone, result in words (T47D cells): completely ineffective
growth effect of steroid hormone, result in words (H301 cells): inactive
CA-PS-Pool II Ka (CA-PS-Pool II): 530000 M⁻¹
Kd (CA-PS-Pool II): 1890 nM
Ka for human CBG (human CBG): 5.2e+07 M⁻¹
concentration causing significant (p<0.05) growth (MTW9/PL2 cells): > 10000 nM
CA-PS-Pool I Ka ([3]; 3H-labeled steroid, 34° C.): 1.41e+09 M⁻¹
CA-PS-Pool I Ka ([3]; 3H-labeled steroid, 34° C.; listed as Cortisol): 1.41e+09 M⁻¹
Kd ([3]; 3H-labeled steroid, 34° C.; read-out: CA-PS-Pool I Kd): 0.71 nM
CA-PS-Pool II Ka [4]: 180000 M⁻¹
Kd [4]: 5700 nM
specific saturable receptors for cortisol [11]: did not identify specific saturable receptors
growth effect of steroid hormone, result in words (GH4C1 cells): had no effect on GH4C1 growth

IGF-I: insulin-like growth factor I
reversal of the CDE-serum inhibition (substitute for E2) [7]: did not reverse the serum inhibition

TGFα: transforming growth factor α, EGF analogue
reversal of the CDE-serum inhibition (substitute for E2) [7]: did not reverse the effects of the serum-borne inhibitor

C[C@]12CC[C@@H]3c4ccc(O)cc4CC[C@H]3[C@@H]1C[C@@H](O)[C@@H]2O [E3, Estriol]
concentration for optimum growth (MTW9/PL2 cells): 10 nM
growth effect of steroid hormone, result in words (GH4C1 cells): substantially less effective
